The conditions of data set [1]: cited from earlier work.
Data set [2] can be described thus: Maximum solubility and guest/host molar ratios in 45% hydroxypropyl-β-cyclodextrin (Example 6). Format: physicochemical. The settings on record: for solubility: 45% hpbcd. On the procedure: 45% (w/v) aqueous solutions of 2-hydroxypropyl-β-cyclodextrin using either source A or B (see Example 3) were prepared, and the maximum solubilities of phenoltetrabromphthalein and of cholesterol were determined per 5.0 ml of solution using standard techniques. Phenoltetrabromphthalein concentration was determined spectrophotometrically at 580 mμ. Cholesterol concentration was determined by both GLC and by liquid scintillation counting using cholesterol of known specific activity. The data are shown below, along with a summary of data from other examples.

Data set [3] deals with intraocular pressure of the normal rabbit eye. Particulars: topical, Silvestrini; cited from earlier work.
Data set [4] is described as follows: Maximum solubility and guest/host molar ratios in 45% hydroxypropyl-β-cyclodextrin (Example 6). Format: physicochemical. The settings on record: source C (Wacker).
The nature of data set [5]: Maximum solubility of acetazolamide with commercial HPBCD preparations (Example 3). Format: physicochemical. An excerpt:
The solubility of the active agent can be determined by any of the conventional methods available. For example, solutions of the agent, prepared with and without a β-cyclodextrin derivative, can be filtered (e.g., using a 0.22 or 0.45 μm membrane filter) to eliminate undissolved agent, and subjected to chromatography (e.g., reverse-phase HPLC) to determine the concentration of agent present in the solution.
In order to assess the efficiency of 3 different commercially available preparations of HPBCD, the maximum solubility of acetazolamide (maximum solubility in water: 0.1%) was determined for each. The three sources of HPBCD were (A) Roquette (RE No. 446601), (B) American Maize ("Encapsin"), and (C) Wacker Chemical (BetaW7, HP0.9).

The subject of data set [6] is anterior chamber of the eye. The data set is described as follows: Fluorescence in anterior chamber after topical Na-Fluorescein, slit lamp biomicroscope. Particulars: 2% Na-Fluorescein in 0.9% saline; at one hour; rabbit. Format: in vivo, New Zealand white rabbit. On the procedure: Solutions of 2% Na-Fluorescein were prepared in 0.9% Saline, 4.5% HPBCD, and 45% HPBCD (the HPBCD is Type B of Example 3). Each solution was applied to the eye of a New Zealand white rabbit and observed for a period of one hour. The anterior chamber of the eye was examined with a standard blue light source on a slit lamp biomicroscope.

For data set [7] the following is noted: with β-cyclodextrin at either 3% or 1.5%; topical; Grove et al.; cited from earlier work.
Data set [8] relates to intraocular pressure. The data set is described as follows: Intraocular pressure after 1% methazolamide in 45% HPBCD, applanation tonometry (Example 5). It counts as in vivo, New Zealand white rabbits. The settings on record: dissolved in HPBCD. On the procedure: Solutions of 1% methazolamide in 45% HPBCD and the HPBCD alone (control) were applied to paired right and left eyes of New Zealand white rabbits. Intraocular pressure was measured by applanation tonometry until pressures returned to baseline.

The nature of data set [9]: Palmitic acid in centrifuged fractions of 2-hydroxypropyl-β-cyclodextrin solution in D2O, by GLC (Example 7). It counts as physicochemical. Particulars: Wacker HPBCD in D2O, 100,000× g 3 hours. On the procedure:
2.25 g of Wacker 2-hydroxypropyl-β-cyclodextrin (Source C of Example 3) was dissolved in D2 O to give a final volume of 5.0 ml. 100 mg of palmitic acid was added to the solution and the mixture placed in an ultrasonic water bath at 60° C. for several hours, after which it was brought to room temperature and filtered through an 0.22 mμ millipore filter to obtain a clear solution. 3.0 ml of the solution was centrifuged at 100,000× g for 3 hours in a Beckman TL-100 centrifuge. Following centrifugation, aliquots of approximately 1.0 ml were removed from the tube to give upper, middle and lower fractions. A 0.1 ml aliquot from each fraction was pipetted into a tube and 1 mg of cholesterol added as an internal standard. Each tube was then partitioned between ethyl acetate and water to extract all of the palmitic acid and internal standard. The amount of palmitic acid in each aliquot was then determined by GLC using a flame detector.

Data set [10] has as its system intraocular pressure. The data set is described as follows: Intraocular pressure after topical acetazolamide preparations, Perkins applanation tonometer (Example 2). The settings on record: 1% Na-acetazolamide in 0.9% NaCl, FIG. 1. It counts as in vivo, New Zealand white rabbits. Here is the method: Solutions of 1% acetazolamide in 45% HPBCD and 1% Na-acetazolamide in 0.9% NaCl were applied to paired right and left eyes of 10 New Zealand white rabbits (the HPBCD is Type B of Example 3). Intraocular pressure was measured with a Perkins applanation tonometer at hourly intervals until all pressures returned to baseline. […] As a further control, the acetazolamide/HPBCD preparation was compared with 45% HPBCD alone (control).

Where [11] appears, read: source A (Roquette), read-out: maximum solubility.
[12] abbreviates: source B (A. Maize), read-out: maximum solubility.

In brackets after ≈: the same amount, converted by molar mass. Where a name gives a salt, the structure may show the parent alone. Read-outs that look alike come from different tables or passages of the source. Bounds are passed on as bounds.

With `CNC[C@H](O)c1ccc(O)c(O)c1` [epinephrine], the “sensitivity developed by patients” value in [1] (topical, used for a year or longer) is recorded as “frequently develop sensitivity”.
On to `C[C@@H](CO)CCC[C@@H](C)[C@H]1CC[C@H]2[C@@H]3CC=C4C[C@@H](O)CC[C@]4(C)[C@H]3CC[C@]12C` [26-hydroxy cholesterol], for which, in data set [2], the guest/host molar ratio result is “.16”. In addition, the solubility – broadly, the concentration that dissolves in the medium under given conditions – in data set [2] (maximum solubility) came out at 20000 µg/mL.
For the compound `CC(=O)Nc1nnc(S(N)(=O)=O)s1` [disodium salts of acetazolamide], the “lowering of intraocular pressure” value in data set [3] is “can be used to lower the intraocular pressure of the normal rabbit eye”.
Regarding `CC(=O)Nc1nnc(S(N)(=O)=O)s1` [acetazolamide], the guest/host molar ratio in [2] (45% HPBCD, source B (A. Maize)) came to 0.31; in data set [4] (45% HPBCD) it was 0.31. The solubility in [2] (setting [11]) was > 5000 µg/mL; in data set [2] (setting [12]) it was 20000 µg/mL; in data set [4] (45% hpbcd), 20000 µg/mL; in data set [5] (hpbcd solution, HPBCD source A, Roquette (RE No. 446601), read-out: maximum solubility), 1000 µg/mL (≈ 4.5 mM); in data set [5] (hpbcd solution, HPBCD source B, American Maize ("Encapsin"), read-out: maximum solubility), 10000 µg/mL (≈ 45 mM); in [5] (hpbcd solution, HPBCD source C, Wacker Chemical (BetaW7, HP0.9), read-out: maximum solubility) it was 18000 µg/mL (≈ 81 mM). Besides, the solubility in data set [5] (water, read-out: maximum solubility in water) was determined as 1000 µg/mL (≈ 4.5 mM).
With `CC(C)CCC[C@@H](C)[C@H]1CC[C@H]2[C@@H]3CC=C4C[C@@H](O)CC[C@]4(C)[C@H]3CC[C@]12C` [Cholesterol, cholesterol], the guest/host molar ratio entry in data set [2] (45% HPBCD, source A (Roquette)) is on record as “.0015”; in [2] (45% HPBCD, source B (A. Maize)), “.038”. Also, the solubility in data set [2] (setting [11]) worked out at 80 µg/mL; in data set [2] (setting [12]), 4300 µg/mL.
As for `O=C1OC2(c3ccc(O)cc3Oc3cc(O)ccc32)c2ccccc21` [Na-Fluorescein], the “fluorescence seen in the eye” value in data set [6] was “considerable fluorescence”.
Consider `CCN[C@H]1C[C@H](C)S(=O)(=O)c2sc(S(N)(=O)=O)cc21` [L-671152], for which the “ocular bioavailability compared to inhibitor administered alone” value in data set [7] is reported as “about 50%”.
`CNCC(O)c1ccc(OC(=O)C(C)(C)C)c(OC(=O)C(C)(C)C)c1` (centres unmarked) [dipiviphrine]: the “sensitivity developed by patients” value in data set [1] (human, in vivo) is recorded as “frequently develop sensitivity”.
Regarding `CC(=O)/N=c1/sc(S(N)(=O)=O)nn1C` [methazolamide], in [8], the “duration of effect relative to acetazolamide” value was “longer duration of effect than does acetazolamide” and the “potency relative to acetazolamide” value was “more potent”.
Consider `CCCCCCCCCCCCCCCC(=O)O` [Palmitic acid, palmitic acid], for which the “Palmitic acid in fraction” value was 23.4 μg/0.1 ml in data set [9] (Lower fraction), 34.0 μg/0.1 ml in data set [9] (Middle fraction) and 41.0 μg/0.1 ml in data set [9] (Upper fraction).
Turning to `CC(=O)Nc1nnc(S(N)(=O)=O)s1` [Na-acetazolamide], the “lowering of intraocular pressure” value in [10] was “only a transient, non-statistically significant lowering of intraocular pressure”.
